Measured values from patent US20100209345A1, “Fluorinated Ligands for Targeting Peripheral Benzodiazepine Receptors” (Australian Nuclear Science & Technology Organisation, priority 2006, published 2010).

Assay: Biodistribution of 18F-labelled tracers in rats
Type: in vivo
Description: [^18F]Fluoride, in the form of H^18F, was produced by the ^18O(p,n)^18F nuclear reaction by bombardment of ^18O-enriched water target. The aqueous [^18F]fluoride solution was added to a 2.5-mL wheaton vial containing dry acetonitrile (1 mL), Kryptofix 2.2.2 (5 mg, 13.3 μmol) and potassium carbonate (2 mg, 14.5 μmol). The solvent was evaporated under a stream of nitrogen at 90° C. with a reducing vacuum. This azeotropic drying was repeated twice by further addition of acetonitrile (2×1 mL). The tosylate precursor 2-(2-(4-(2-tosylethoxy)phenyl)-6-chloroimidazo[1,2-a]pyridin-3-yl)-N,N-diethylacetamide (2 mg, 3.6 μmol) was dissolved in acetonitrile (1 ml) and added to the dried K222.K2CO3.KF complex. Stirring and heating at 90° C. continued for 10 to 15 mins before the reaction mixture was diluted with mobile phase and purified by reverse phase HPLC on an Alltech Alltima, C18, 10μ, 250×22 mm column eluting at 10 mLs/min with 45% acetonitrile, 55% water with 0.1% TFA.
The biodistribution of PBR132* was undertaken in SD rats and analysis up to 4 h p.i. in the brain and peripheral tissues was performed. The specificity and selectivity of the tracer were assessed by pre-treatment with PBR and Central benzodiazepine receptor (CBR) specific ligands (1 mg/kg) 5 min prior to injection of PBR132*.
The biodistribution of PBR 147* was performed in SD rats and brain and peripheral tissues were analysised at 15, 30 min, 1, and 4 h p.i. The specificity and selectivity of the tracer was assessed by pre-treatment of the animals with the PBR ligands PK11195 and Ro 5-4864 and with Flumazenil for CBR at 1 mg/kg 5 min prior to injection of PBR 147*
The biodistribution of PBR102* and PBR111* were performed in SD rats and brain and peripheral tissues analysed at 15, 30 min, 1, and 4 h p.i. The specificity and selectivity of the tracers were assessed by pre-treatment with the PBR ligands PK11195 and Ro 5-4864 and with Flumazenil for CBR at 1 mg/kg 5 min prior to injection of the corresponding tracers.
The specificity and selectivity of the tracers were assessed by pre-treatment with the PBR ligands PK11195 and Ro 5-4864 and with Flumazenil for CBR at 1 mg/kg 5 min prior to injection of the corresponding tracers.

[1] = SD rats, 15 min, decay correction not stated
[2] = SD rats, 4 hours, decay correction not stated
[3] = rats, 15 min, corrected for decay of 18F
[4] = rats, 30 min, corrected for decay of 18F
[5] = rats, 60 min, corrected for decay of 18F
[6] = rats, 4 hours, corrected for decay of 18F

Biodistribution: Blood [1]: 0.4 % ID/g | Biodistribution: Bone [1]: 1.0 % ID/g | Biodistribution: Kidney [1]: 5.5 % ID/g | Biodistribution: Olfactory bulbs [1]: 0.41 % ID/g | Biodistribution: Adrenals (SD rats, 30 min, decay correction not stated): 7.9 % ID/g | Biodistribution: Adrenals [2]: 12.2 % ID/g | Biodistribution: Blood [2]: 0.1 % ID/g | Biodistribution: Bone [2]: 5.0 % ID/g | Biodistribution: Kidney [2]: 3.2 % ID/g | Biodistribution: Olfactory bulbs [2]: 0.31 % ID/g | Biodistribution: Adrenals [3]: 8.05 ± 0.66 % ID/g | Biodistribution: Bladder [3]: 0.63 ± 0.14 % ID/g | Biodistribution: Blood [3]: 0.38 ± 0.08 % ID/g | Biodistribution: Bone [3]: 1.06 ± 0.17 % ID/g | Biodistribution: Brain [3]: 0.27 ± 0.03 % ID/g | Biodistribution: Heart [3]: 8.99 ± 0.69 % ID/g | Biodistribution: Kidney [3]: 5.53 ± 1.20 % ID/g | Biodistribution: Liver [3]: 1.08 ± 0.05 % ID/g | Biodistribution: Lungs [3]: 20.42 ± 4.32 % ID/g | Biodistribution: Muscle [3]: 1.10 ± 0.15 % ID/g | Biodistribution: Olfactory bulbs [3]: 0.41 ± 0.10 % ID/g | Biodistribution: Pancreas [3]: 2.20 ± 0.68 % ID/g | Biodistribution: Skin [3]: 0.53 ± 0.11 % ID/g | Biodistribution: Spleen [3]: 5.49 ± 0.90 % ID/g | Biodistribution: Stomach [3]: 0.69 ± 0.12 % ID/g | Biodistribution: Testes [3]: 0.269 ± 0.022 % ID/g | Biodistribution: Thymus [3]: 0.80 ± 0.07 % ID/g | Biodistribution: Thyroid [3]: 7.71 ± 2.92 % ID/g | Biodistribution: Adrenals [4]: 7.94 ± 1.52 % ID/g | Biodistribution: Bladder [4]: 0.71 ± 0.22 % ID/g | Biodistribution: Blood [4]: 0.26 ± 0.03 % ID/g | Biodistribution: Bone [4]: 1.46 ± 0.27 % ID/g | Biodistribution: Brain [4]: 0.15 ± 0.02 % ID/g | Biodistribution: GIT [4]: 1.25 ± 0.09 % ID/g | Biodistribution: Heart [4]: 9.05 ± 0.51 % ID/g | Biodistribution: Kidney [4]: 4.91 ± 0.21 % ID/g | Biodistribution: Liver [4]: 0.98 ± 0.21 % ID/g | Biodistribution: Lungs [4]: 12.36 ± 1.28 % ID/g | Biodistribution: Muscle [4]: 0.82 ± 0.13 % ID/g | Biodistribution: Olfactory bulbs [4]: 0.45 ± 0.07 % ID/g | Biodistribution: Pancreas [4]: 1.59 ± 0.10 % ID/g | Biodistribution: Skin [4]: 0.55 ± 0.05 % ID/g | Biodistribution: Spleen [4]: 5.53 ± 0.36 % ID/g | Biodistribution: Stomach [4]: 1.03 ± 0.16 % ID/g | Biodistribution: Testes [4]: 0.285 ± 0.024 % ID/g | Biodistribution: Thymus [4]: 0.84 ± 0.11 % ID/g | Biodistribution: Thyroid [4]: 7.69 ± 2.21 % ID/g | Biodistribution: Adrenals [5]: 11.02 ± 1.88 % ID/g | Biodistribution: Bladder [5]: 0.89 ± 0.25 % ID/g | Biodistribution: Blood [5]: 0.18 ± 0.02 % ID/g | Biodistribution: Bone [5]: 2.07 ± 0.27 % ID/g | Biodistribution: Brain [5]: 0.12 ± 0.01 % ID/g | Biodistribution: GIT [5]: 1.51 ± 0.21 % ID/g | Biodistribution: Heart [5]: 8.57 ± 1.01 % ID/g | Biodistribution: Kidney [5]: 4.70 ± 0.24 % ID/g | Biodistribution: Liver [5]: 0.69 ± 0.26 % ID/g | Biodistribution: Lungs [5]: 7.12 ± 0.95 % ID/g | Biodistribution: Muscle [5]: 0.67 ± 0.04 % ID/g | Biodistribution: Olfactory bulbs [5]: 0.25 ± 0.06 % ID/g | Biodistribution: Pancreas [5]: 1.41 ± 0.22 % ID/g | Biodistribution: Skin [5]: 0.67 ± 0.06 % ID/g | Biodistribution: Spleen [5]: 5.14 ± 0.38 % ID/g | Biodistribution: Stomach [5]: 1.27 ± 0.45 % ID/g | Biodistribution: Testes [5]: 0.319 ± 0.028 % ID/g | Biodistribution: Thymus [5]: 0.96 ± 0.17 % ID/g | Biodistribution: Thyroid [5]: 13.37 ± 0.46 % ID/g | Biodistribution: Adrenals [6]: 12.21 ± 1.56 % ID/g | Biodistribution: Bladder [6]: 1.26 ± 0.16 % ID/g | Biodistribution: Blood [6]: 0.10 ± 0.01 % ID/g | Biodistribution: Bone [6]: 4.12 ± 0.23 % ID/g | Biodistribution: Brain [6]: 0.08 ± 0.01 % ID/g | Biodistribution: GIT [6]: 1.54 ± 0.11 % ID/g | Biodistribution: Heart [6]: 5.76 ± 0.92 % ID/g | Biodistribution: Kidney [6]: 3.23 ± 0.26 % ID/g | Biodistribution: Liver [6]: 0.38 ± 0.09 % ID/g | Biodistribution: Lungs [6]: 3.25 ± 0.21 % ID/g | Biodistribution: Muscle [6]: 0.31 ± 0.06 % ID/g | Biodistribution: Olfactory bulbs [6]: 0.31 ± 0.08 % ID/g | Biodistribution: Pancreas [6]: 0.77 ± 0.16 % ID/g | Biodistribution: Skin [6]: 0.71 ± 0.07 % ID/g | Biodistribution: Spleen [6]: 3.61 ± 0.19 % ID/g | Biodistribution: Stomach [6]: 0.34 ± 0.04 % ID/g | Biodistribution: Testes [6]: 0.426 ± 0.043 % ID/g | Biodistribution: Thymus [6]: 1.35 ± 0.15 % ID/g | Biodistribution: Thyroid [6]: 10.68 ± 1.44 % ID/g
Structure (SMILES): CCN(CC)C(=O)Cc1c(-c2ccc(OCCCF)cc2)nn2c(C)cc(C)nc12 [PBR146*]
